As usually defined, the IC50 is the concentration that inhibits the measured activity by half.

We go through three molecules from ChEMBL document CHEMBL3399956, “Cell-based biological evaluations of 5-(3-bromo-4-phenethoxybenzylidene)thiazolidine-2,4-dione as promising wound healing agent” (Bioorg Med Chem, 2015).

In experiment [1] the test system is HaCaT. Kind of experiment: Induction of SCL expression in human HaCaT cells at 5 uM by qRT-PCR analysis relative to control. The experiment is classed as functional. (Quantitative PCR measures a nucleic acid by following its amplification.)
Experiment [2] concerns HaCaT. Kind of experiment: In vitro wound healing effect on human HaCaT cells assessed as improvement wound healing at 5 uM after 48 hrs. The experiment is classed as functional, cell-based.
Experiment [3] deals with T1, 15-hydroxyprostaglandin dehydrogenase [NAD(+)] (Homo sapiens) (UniProt P15428).
T1 sequence (whole entry): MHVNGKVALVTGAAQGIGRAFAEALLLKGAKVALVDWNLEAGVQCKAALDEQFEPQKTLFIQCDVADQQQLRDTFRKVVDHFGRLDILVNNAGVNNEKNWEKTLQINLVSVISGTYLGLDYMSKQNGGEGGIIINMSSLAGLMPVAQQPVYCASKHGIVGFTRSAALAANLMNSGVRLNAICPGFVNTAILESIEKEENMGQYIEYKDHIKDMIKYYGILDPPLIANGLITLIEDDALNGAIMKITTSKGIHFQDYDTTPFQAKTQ
Kind of experiment: Inhibition of 15-PGDH in human A549 cells assessed as increase in PGE2 level at 5 uM after 12 hrs by immunoassay relative to control. The experiment is classed as cell-based.

For experiment [4], the target named is T2, 15-hydroxyprostaglandin dehydrogenase [NAD(+)] (Homo sapiens, UniProt P15428).
T2 sequence (P15428 whole entry): T1 sequence (whole entry)
Kind of experiment: Inhibition of 15-PGDH (unknown origin) by fluorescence spectrophotometry.

Experiment [5] relates to HS27. Kind of experiment: Induction of SCL expression in human HS27 cells at 5 uM by qRT-PCR analysis. The experiment is classed as functional, cell-based.
For experiment [6], the target named is T1, 15-hydroxyprostaglandin dehydrogenase [NAD(+)] (Homo sapiens). Kind of experiment: Inhibition of 15-PGDH in human A549 cells assessed as increase in PGE2 level after 12 hrs by immunoassay. The experiment is classed as cell-based.
Experiment [7] relates to HS27. Kind of experiment: Induction of C-MYB expression in human HS27 cells at 5 uM by qRT-PCR analysis. The experiment is classed as functional, cell-based.
Experiment [8] deals with HS27. Kind of experiment: Induction of GATA2 expression in human HS27 cells at 5 uM by qRT-PCR analysis. The experiment is classed as functional, cell-based.
The test system of experiment [9] is HS27. Kind of experiment: In vitro wound healing effect on human HS27 cells assessed as wound healing at 5 uM after 48 hrs. The experiment is classed as functional, cell-based.
Experiment [10] deals with HS27. Kind of experiment: Induction of RUNX1 expression in human HS27 cells at 5 uM by qRT-PCR analysis. The experiment is classed as functional, cell-based.
Experiment [11] concerns HS27. Kind of experiment: Induction of KDR expression in human HS27 cells at 5 uM by qRT-PCR analysis. The experiment is classed as functional, cell-based.
Experiment [12] relates to HS27. Kind of experiment: Induction of LMO2 expression in human HS27 cells at 5 uM by qRT-PCR analysis. The experiment is classed as functional, cell-based.
For experiment [13], the system named is HaCaT. Kind of experiment: In vitro wound healing effect on human HaCaT cells assessed as wound healing at 5 uM after 48 hrs in presence of 15-PGDH. The experiment is classed as functional, cell-based.

Active and inactive are the calls of the source. No cut-off for these calls is given here.

With `COc1ccc2c(c1)c(CC(=O)O)c(C)n2C(=O)c1ccc(Cl)cc1`, the result with HaCaT [1] was inactive.

With `O=C1NC(=O)/C(=C/c2ccc(OCCc3ccccc3)c(Br)c2)S1`, the result in the experiment with HaCaT [2] was Active. In addition, the Activity is 451 pg/mL in experiment [3] and “Dose-dependent effect” in [6]. Moreover, the fold change (FC) in experiment [3] worked out at 7; in the experiment with HaCaT [1] it was 2. Moreover, in experiment [4], the IC50 was 4 nM. Besides, the result in the experiment on HS27 [5], in the experiment on HS27 [7], with HS27 [8], with HS27 [10], in the experiment with HS27 [11] and in the experiment with HS27 [12] was inactive. Also, the inhibition entry in the experiment with HS27 [9] and in the experiment with HaCaT [13] was “inactive” throughout.

Turning to `O=C1NC(=O)/C(=C/c2ccc(OCCCc3ccccc3)c(Br)c2)S1`, the outcome in experiment [3] was Active.
